# ChEMBL document CHEMBL1201862, “PubChem BioAssay data set” (2004)
# Active and inactive are the calls of the source.
# How the values were obtained:
# [1] = target: T1, Ubiquitin-conjugating enzyme E2 N (Homo sapiens, UniProt P61088); assay type: functional
# T1 sequence (P61088 whole entry): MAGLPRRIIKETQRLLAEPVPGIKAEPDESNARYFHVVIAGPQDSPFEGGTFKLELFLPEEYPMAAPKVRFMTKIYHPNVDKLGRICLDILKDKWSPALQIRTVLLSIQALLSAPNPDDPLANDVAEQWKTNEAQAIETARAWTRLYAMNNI
# HEK293 = experiment: HEK cell cytotoxicity by LDH release, dose response, cytotoxicity control for IDE activator project, fluorescence, HEK cells (AID 588440); assay type: functional, cell-based; conditions: Homo sapiens;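 further: cytotoxicity by LDH release measuring loss of membrane integrity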
# [2] = target: T2, RNA-binding protein pos-1 (Caenorhabditis elegans, UniProt G5EF15); experiment: inhibitors of POS-1/mex-3 RNA binding, dose response, biochemical, fluorescence polarization (AID 1964);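 further: purified POS-1 fused to maltose binding protein made in E. coli; potency of compounds blocking POS-1 binding to fluorescent RNA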
# T2 sequence (G5EF15 whole entry): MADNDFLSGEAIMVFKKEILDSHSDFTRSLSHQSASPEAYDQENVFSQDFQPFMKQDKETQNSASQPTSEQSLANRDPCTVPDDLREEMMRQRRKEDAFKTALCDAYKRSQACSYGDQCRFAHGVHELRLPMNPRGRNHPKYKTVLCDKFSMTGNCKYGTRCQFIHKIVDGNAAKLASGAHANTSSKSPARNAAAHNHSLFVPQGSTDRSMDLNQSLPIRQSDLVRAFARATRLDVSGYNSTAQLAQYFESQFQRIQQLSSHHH
# [3] = target: T3, Sentrin-specific protease 8 (Homo sapiens, UniProt Q96LD8); assay type: functional
# T3 sequence (Q96LD8 whole entry): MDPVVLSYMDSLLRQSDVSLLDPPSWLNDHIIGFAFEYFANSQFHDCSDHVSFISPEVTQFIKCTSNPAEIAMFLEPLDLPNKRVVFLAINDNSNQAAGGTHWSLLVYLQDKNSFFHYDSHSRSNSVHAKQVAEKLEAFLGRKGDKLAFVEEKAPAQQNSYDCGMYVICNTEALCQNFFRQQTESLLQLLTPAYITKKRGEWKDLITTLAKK
# [4] = target: T4, Replicative DNA helicase DnaB (Mycobacterium tuberculosis, UniProt P9WMR3); experiment: DnaB intein splicing inhibitors, dose response, biochemical, cell-free fluorescence (AID 449749); assay type: functional
# T4 sequence (P9WMR3 whole entry): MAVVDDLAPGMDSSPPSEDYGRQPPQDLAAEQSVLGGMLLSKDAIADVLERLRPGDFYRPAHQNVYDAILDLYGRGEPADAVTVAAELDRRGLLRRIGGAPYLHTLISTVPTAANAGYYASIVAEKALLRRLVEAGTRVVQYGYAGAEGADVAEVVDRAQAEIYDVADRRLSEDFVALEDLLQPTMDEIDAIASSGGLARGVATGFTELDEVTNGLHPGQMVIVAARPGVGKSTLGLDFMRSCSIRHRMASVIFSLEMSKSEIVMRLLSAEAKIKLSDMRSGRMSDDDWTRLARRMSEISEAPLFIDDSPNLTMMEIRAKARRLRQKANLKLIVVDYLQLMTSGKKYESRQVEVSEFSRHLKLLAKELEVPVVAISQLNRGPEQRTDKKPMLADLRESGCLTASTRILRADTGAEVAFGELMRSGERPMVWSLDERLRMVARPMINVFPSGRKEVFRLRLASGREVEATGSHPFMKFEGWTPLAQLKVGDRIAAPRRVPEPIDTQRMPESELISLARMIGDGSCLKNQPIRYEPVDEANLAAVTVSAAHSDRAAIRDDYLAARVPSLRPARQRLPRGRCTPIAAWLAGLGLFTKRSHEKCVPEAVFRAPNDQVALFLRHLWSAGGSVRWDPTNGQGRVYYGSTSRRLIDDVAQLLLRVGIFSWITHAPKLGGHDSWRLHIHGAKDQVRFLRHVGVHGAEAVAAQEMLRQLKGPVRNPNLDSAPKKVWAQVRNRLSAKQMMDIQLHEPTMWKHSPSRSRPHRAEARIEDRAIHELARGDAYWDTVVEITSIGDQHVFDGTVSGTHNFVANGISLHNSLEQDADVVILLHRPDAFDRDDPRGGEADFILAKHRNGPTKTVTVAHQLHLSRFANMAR
# BJ [5] = experiment: cells; assay type: functional, cell-based; conditions: Homo sapiens
# BJ [6] = experiment: cytotoxicity toward BJ-TERT-LT-ST fibroblasts, dose response, cell-based, RAS-independent, luminescence (AID 1935); assay type: functional; conditions: Homo sapiens;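 further: BJ fibroblasts immortalized with TERT plus LT and ST oncogenes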
# [7] = target: Intestinal-type alkaline phosphatase (Mus musculus, UniProt P24822); experiment: PubChem AID 488874; assay type: functional
# Sequence of Intestinal-type alkaline phosphatase (P24822 whole entry, the tested form may be a part): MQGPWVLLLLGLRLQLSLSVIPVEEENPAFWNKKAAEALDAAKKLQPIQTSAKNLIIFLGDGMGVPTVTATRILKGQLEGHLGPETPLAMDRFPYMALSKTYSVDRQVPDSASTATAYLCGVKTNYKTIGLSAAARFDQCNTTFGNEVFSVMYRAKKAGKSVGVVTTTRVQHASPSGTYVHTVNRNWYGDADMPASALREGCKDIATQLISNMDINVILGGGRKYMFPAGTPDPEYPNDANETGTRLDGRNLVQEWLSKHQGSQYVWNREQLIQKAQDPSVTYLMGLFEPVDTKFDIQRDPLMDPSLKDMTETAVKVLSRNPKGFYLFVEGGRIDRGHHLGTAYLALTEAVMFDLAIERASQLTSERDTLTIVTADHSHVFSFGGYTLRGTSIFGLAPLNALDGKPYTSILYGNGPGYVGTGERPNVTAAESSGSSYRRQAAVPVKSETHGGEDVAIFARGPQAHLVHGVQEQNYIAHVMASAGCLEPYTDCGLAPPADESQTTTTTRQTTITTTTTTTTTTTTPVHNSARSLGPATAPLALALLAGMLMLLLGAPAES
# LIM domain kinase 1 = LIM domain kinase 1 (Homo sapiens, UniProt P53667); experiment: Navigating the Kinome. Panel member name: LIMK1; assay type: functional
# Sequence of LIM domain kinase 1 (P53667 whole entry, the tested form may be a part): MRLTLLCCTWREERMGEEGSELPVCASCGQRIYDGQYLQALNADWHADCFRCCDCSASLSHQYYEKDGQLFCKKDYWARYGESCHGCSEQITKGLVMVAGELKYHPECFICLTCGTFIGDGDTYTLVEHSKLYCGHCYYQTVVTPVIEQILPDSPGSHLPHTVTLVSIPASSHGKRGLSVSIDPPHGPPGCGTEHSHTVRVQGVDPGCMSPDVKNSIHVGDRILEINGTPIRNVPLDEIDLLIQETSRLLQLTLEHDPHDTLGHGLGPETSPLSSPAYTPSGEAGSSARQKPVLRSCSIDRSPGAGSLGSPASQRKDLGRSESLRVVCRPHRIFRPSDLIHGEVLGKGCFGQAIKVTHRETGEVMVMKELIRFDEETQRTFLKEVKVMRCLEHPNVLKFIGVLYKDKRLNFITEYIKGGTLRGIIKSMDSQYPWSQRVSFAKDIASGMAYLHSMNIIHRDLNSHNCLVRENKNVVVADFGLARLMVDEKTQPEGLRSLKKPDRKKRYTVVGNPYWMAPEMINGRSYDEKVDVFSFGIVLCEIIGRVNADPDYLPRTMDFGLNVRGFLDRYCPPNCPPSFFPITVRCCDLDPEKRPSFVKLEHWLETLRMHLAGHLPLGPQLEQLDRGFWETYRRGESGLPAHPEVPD
# [8] = target: Tyrosine-protein kinase ABL1 (Homo sapiens, UniProt P00519); assay type: functional
# Sequence of Tyrosine-protein kinase ABL1 (P00519 whole entry): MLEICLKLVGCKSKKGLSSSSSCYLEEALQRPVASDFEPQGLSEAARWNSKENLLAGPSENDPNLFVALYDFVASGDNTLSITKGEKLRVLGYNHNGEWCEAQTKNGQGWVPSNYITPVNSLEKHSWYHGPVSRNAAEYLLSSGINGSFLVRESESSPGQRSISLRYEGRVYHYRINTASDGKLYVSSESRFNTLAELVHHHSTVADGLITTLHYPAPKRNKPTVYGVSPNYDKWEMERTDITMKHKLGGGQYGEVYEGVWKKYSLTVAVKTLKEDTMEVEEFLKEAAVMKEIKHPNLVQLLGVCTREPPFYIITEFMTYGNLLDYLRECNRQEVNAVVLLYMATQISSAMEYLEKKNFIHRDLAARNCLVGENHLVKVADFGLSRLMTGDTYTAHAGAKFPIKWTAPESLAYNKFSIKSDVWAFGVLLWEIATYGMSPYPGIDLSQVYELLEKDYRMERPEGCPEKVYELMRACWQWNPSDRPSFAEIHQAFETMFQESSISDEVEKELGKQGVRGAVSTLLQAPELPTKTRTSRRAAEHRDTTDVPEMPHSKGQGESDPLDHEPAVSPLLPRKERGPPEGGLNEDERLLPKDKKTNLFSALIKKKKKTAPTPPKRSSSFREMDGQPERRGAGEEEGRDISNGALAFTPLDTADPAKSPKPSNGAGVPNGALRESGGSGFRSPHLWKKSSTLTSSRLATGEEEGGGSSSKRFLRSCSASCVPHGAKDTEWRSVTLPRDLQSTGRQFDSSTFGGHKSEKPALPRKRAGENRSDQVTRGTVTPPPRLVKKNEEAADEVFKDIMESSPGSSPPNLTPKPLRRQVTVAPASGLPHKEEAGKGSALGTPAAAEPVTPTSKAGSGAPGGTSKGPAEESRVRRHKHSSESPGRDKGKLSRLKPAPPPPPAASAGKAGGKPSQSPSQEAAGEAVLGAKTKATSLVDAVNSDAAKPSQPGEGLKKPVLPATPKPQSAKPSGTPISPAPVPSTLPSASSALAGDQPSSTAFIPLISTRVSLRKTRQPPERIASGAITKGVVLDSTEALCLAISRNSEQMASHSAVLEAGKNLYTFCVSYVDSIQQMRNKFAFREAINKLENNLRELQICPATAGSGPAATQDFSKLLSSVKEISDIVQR
# Focal adhesion kinase 1 = Focal adhesion kinase 1 (Homo sapiens, UniProt Q05397); assay type: functional;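 further: measured as one member of a kinome panel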
# Sequence of Focal adhesion kinase 1 (Q05397 whole entry): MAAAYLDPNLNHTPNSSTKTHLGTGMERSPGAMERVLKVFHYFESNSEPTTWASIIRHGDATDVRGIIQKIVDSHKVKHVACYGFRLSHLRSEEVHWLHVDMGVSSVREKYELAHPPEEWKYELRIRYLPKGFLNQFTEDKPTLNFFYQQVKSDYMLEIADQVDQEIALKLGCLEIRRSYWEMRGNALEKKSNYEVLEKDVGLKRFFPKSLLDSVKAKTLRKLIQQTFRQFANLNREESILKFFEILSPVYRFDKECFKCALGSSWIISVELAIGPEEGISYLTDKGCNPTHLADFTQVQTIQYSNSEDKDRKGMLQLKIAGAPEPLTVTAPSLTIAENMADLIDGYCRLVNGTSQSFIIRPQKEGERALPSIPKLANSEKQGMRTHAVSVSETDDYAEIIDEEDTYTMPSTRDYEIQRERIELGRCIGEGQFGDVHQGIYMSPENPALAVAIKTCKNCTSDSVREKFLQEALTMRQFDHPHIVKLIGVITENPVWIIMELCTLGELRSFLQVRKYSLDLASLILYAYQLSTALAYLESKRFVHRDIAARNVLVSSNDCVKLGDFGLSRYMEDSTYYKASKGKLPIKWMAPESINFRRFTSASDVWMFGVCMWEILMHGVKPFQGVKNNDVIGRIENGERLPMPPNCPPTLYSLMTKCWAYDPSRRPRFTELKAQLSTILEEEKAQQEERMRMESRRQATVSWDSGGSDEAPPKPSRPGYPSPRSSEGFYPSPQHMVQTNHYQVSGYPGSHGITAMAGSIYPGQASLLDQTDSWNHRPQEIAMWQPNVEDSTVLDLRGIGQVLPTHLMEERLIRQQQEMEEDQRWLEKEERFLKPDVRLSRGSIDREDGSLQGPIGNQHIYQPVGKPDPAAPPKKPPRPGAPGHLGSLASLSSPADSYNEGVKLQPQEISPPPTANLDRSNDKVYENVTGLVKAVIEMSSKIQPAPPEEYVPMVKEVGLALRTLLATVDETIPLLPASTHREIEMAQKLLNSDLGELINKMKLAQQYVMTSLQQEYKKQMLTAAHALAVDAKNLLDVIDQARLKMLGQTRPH
# Aurora kinase B = Aurora kinase B (Homo sapiens, UniProt Q96GD4); assay type: functional
# Sequence of Aurora kinase B (Q96GD4 whole entry): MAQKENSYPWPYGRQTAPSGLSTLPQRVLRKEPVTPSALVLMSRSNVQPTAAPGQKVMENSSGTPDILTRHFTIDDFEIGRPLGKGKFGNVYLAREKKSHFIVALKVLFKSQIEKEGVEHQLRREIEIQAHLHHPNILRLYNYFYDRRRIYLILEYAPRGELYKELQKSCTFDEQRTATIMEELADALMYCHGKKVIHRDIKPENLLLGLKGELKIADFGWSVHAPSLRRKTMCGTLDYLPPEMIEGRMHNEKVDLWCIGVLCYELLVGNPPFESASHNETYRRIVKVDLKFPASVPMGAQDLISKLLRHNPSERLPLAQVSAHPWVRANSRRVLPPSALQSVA
# [9] = target: Platelet-derived growth factor receptor alpha (Homo sapiens, UniProt P16234); experiment: Navigating the Kinome. Panel member name: PDGFRA; assay type: functional
# Sequence of Platelet-derived growth factor receptor alpha (P16234 whole entry): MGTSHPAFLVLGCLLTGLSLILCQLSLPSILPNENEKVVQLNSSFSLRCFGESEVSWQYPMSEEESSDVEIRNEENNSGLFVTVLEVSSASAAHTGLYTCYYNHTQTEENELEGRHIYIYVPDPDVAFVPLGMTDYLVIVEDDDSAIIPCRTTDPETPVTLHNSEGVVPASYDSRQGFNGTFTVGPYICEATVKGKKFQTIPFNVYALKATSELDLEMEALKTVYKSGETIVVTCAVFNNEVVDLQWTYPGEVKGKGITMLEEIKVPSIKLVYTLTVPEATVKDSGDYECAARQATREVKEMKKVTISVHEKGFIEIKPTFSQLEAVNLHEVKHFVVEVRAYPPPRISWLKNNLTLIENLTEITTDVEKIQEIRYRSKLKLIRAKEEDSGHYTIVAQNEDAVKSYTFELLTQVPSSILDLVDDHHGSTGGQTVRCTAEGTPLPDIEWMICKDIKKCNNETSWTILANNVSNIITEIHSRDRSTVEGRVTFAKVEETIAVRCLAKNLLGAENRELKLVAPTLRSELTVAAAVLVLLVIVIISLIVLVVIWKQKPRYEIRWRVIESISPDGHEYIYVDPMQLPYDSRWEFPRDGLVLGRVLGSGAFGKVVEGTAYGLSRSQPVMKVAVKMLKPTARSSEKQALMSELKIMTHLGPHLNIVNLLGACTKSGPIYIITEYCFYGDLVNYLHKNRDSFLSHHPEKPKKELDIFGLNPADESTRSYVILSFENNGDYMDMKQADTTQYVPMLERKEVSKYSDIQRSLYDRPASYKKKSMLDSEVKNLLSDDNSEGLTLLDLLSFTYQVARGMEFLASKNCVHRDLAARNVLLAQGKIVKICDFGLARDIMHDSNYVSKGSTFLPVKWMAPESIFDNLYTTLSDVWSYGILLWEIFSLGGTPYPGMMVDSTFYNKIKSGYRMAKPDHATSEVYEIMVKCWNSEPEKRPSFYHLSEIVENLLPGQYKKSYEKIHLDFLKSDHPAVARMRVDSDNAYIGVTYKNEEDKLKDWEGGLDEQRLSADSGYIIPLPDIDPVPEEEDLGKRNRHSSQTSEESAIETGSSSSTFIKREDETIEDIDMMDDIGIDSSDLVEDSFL
# [10] = inhibitors of SNCA 5'UTR-driven translation, confirmation, luminescence, H4 neuroglioblastoma cells, dose confirmation (AID 2454); assay type: functional, cell-based;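 further: H4 neuroglioblastoma cells carrying an alpha-synuclein 5'UTR luciferase reporter; potency for inhibition of the luciferase signal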
smiles,measurement,setting,value
CNC[C@H](Cc1ccccc1)NC[C@@H](Cc1cccc2ccccc12)NCCc1ccc(C)cc1,IC50,[1],11.5 µM (active)
same,IC50,HEK293,9.04 µM (active)
Nc1nnc2c(n1)CCCC2,EC50,[2],104 µM (active)
same,IC50,[3],6.32 µM (active)
O=C(Cc1ccccc1Cl)NC1(O)C(=O)c2ccccc2C1=O,AC50,[4],7.96 µM (active)
O=C(N/N=C/c1c(O)ccc2ccccc12)c1[nH]ncc1Br,EC50,BJ [5],7.88 µM (active)
same,EC50,BJ [6],10.5 µM (active)
same,IC50,[7],36.5 µM (active)
Nc1c(-c2ccc(NC(=O)Nc3cccc(C(F)(F)F)c3)cc2)cnc2c(-c3ccc4c(c3)OCO4)cnn12,Ki,LIM domain kinase 1,> 3.16 µM (inactive)
same,Ki,[8],0.2 µM (active)
same,Ki,Focal adhesion kinase 1,> 6.31 µM (inactive)
same,Ki,Aurora kinase B,1 µM (active)
O=C(Nc1cc(-c2c[nH]c3ncccc23)cc(Cl)n1)c1ccccc1,Ki,[9],> 2.51 µM (inactive)
CCN1C(=Cc2sc3ccccc3[n+]2C)C=Cc2cccc(C)c21,EC50,[10],> 12 µM (not active)
